Values after ≈ are worked out from the molar mass of the structure shown.
Tests used:
[1] = system: lymphoma cells of mice; conditions: cited from earlier work
[2] = system: guinea-pig; assay: Phototoxic or photoallergic effect on the guinea-pig; assay type: in vivo
Source text: The products according to the invention have also been tested for a phototoxic or photoallergic effect on the guina-pig. The technique used is that of J. Unkovic, G. Mazue and J. Girard, in "Sciences et Techniques de l'Animal de Laboratoire", 1983, 8 (3), 149-160. This is an adaptation of the techniques described by L. C. Harber et al., Arch. Dermatol., 1967, 96, 646-656 and L. J. Vinson et al., Arch. Dermatol., 1966, 17, 123-130.

[3] = system: Staphylococcus aureus CNCM 53154; assay: Bactericidal activity (MBC), strain 5; assay type: cell-based; conditions: CNCM53154, 20 min, strain 5, 20 minutes of contact, read-out: Minimum bactericidal concentration (MBC)
Source text: (§1) The bactericidal activity of the products according to the invention has been analyzed on various strains by the method described hereafter:
(§2) A bacterial inoculum is placed in contact with different dilutions of the product to be tested, and this for a limited period of time. At the end of contact, an aliquot part of the mixture bacterial suspension/product is deposited on the surface of an agar culture medium containing an agent neutralizing the antibacterial activity of the product. The bactericidal concentration retained is the smallest concentration of the product from which bacteria stop growing. Said concentration is expressed in μg/ml.
(§3) The bacterial strains selected for the analysis are:
5--Staphylococcus aureus CNCM 53154.
(§4) The second strain is supported on a Worgel Fergusson medium, the other strains being supported on Tryptic Soy Agar-Difco (TSA) commercialized by Difco.
(§5) After a 24-hour culture period at 37° C., the microbial growth is collected by means of glass beads and of 10 ml of diluent containing 1 g of tryptone and 8.5 g of sodium chloride in 1000 ml of distilled water. The formed suspension is stirred and the percentage of light transmission at 620 nm is measured with a spectrophotometer:
(§6) The bacterial inoculum corresponds to a 1/20th dilution of this bacterial suspension.
(§7) Plates equipped with cupules receive different dilutions of the product to be analyzed. These dilutions are placed in contact with the different bacterial suspensions by means of a multiple-center inoculator. After 20 minutes of contact, aliquot parts are transferred by means of said inoculator on the surface of an agar medium (TSA) in Petri dishes, containing an activity-neutralizing agent, namely 20 g of lubrol W, 25 g of Tween 80 and 2.5 g of sodium thiosulfate in 1000 ml of TSA (Difco). The efficiency of the neutralizing agent is controlled for each product to be analyzed by depositing on the surface of the culture medium an aliquot part of the dilution of the product to be analyzed. After drying, the corresponding inoculum is deposited in the same place. An inoculum control is performed on an agar medium with or without neutralizing agent. Readings are taken after 48 hours of incubation at 37° C.

[4] = system: Escherichia Coli CNCM 54125; assay: Bactericidal activity (MBC), strain 1; assay type: cell-based; conditions: 20 min, strain 1, 20 minutes of contact, read-out: Minimum bactericidal concentration (MBC)
Source text: as §1, §2, §3
1--Escherichia Coli CNCM 54125;
as §4, §5, §6, §7

[5] = system: Streptococcus faecalis CNCM 5855; assay: Bactericidal activity (MBC), strain 4; assay type: cell-based; conditions: Enterococcus faecalis, CNCM5855, 20 min; strain 4, 20 minutes of contact; read-out: Minimum bactericidal concentration (MBC)
Source text: as §1, §2, §3
4--Streptococcus faecalis CNCM 5855;
as §4, §5, §6, §7

[6] = system: guinea-pig skin; assay: Preliminary skin tolerance in the guinea-pig; assay type: in vivo; conditions: 0.2 ml on shorn skin once a day, six days out of seven, three weeks
Experimental: (§8) The tolerance of the products according to the invention was tested in the guinea-pig. The animals are shorn on both sides of the middle line of the back, the shearing being kept up every other day. Batches of 6 animals receive, on the shorn part, 0.2 ml of an aqueous or alcoholic solution of the product according to the invention. When these products are in alcoholic solution, one control batch of animals receives the alcohol on one side.
To study the preliminary skin tolerance, the treatment is applied once a day, six days out of seven, for three weeks. The observations made of the skin are concerned with the presence of erythema, skin eruptions or hyperkeratosis, the intensity of which is graduated according to a preset scale.

[7] = system: guinea-pig skin; assay: Skin sensitization test in the guinea-pig; assay type: in vivo; conditions: one week treatment after two weeks' rest
Experimental: as §8, with “side. The skin sensitization test is performed on the same animals after two weeks' rest. The treatment lasts one week, it is identical to the preceding one. The evaluation is based on the same criteria and on the same scale as used to determine the local tolerance.” for “side.”

[8] = Acute toxicity by oral route in mice; conditions: mouse, in vivo, per os, male CD1 mice, 14 days observation
Experimental: Acute toxicity was tested by oral route in mice. This test was carried out with male mice of CD1 strain, obtained from the Charles Reever breeding farm. Each batch was composed of 5 animals of body weight varying between 24 and 30 g kept in the same cage. The animals were kept fasting for 6 hours before the treatment. For every test, the product, placed in suspension in a 10% solution of gum arabic, was administered by forcible feeding with an oesophageal probe. Food was then served to the animals 4 hours after the forcible feeding and the animals were kept under observation for a period of 14 days after the administration. During that period, the death rate is recorded for each batch of animals used in the experiment and, wherever possible, the LD50 is determined by the method of J. T. Litchfield and F. Wilcoxon, J. Pharmacol. 1949, 95, 99-113.
The results are given in mg of substance tested per kg of body weight. They are compiled in Table III below.

[9] = system: Encapsulated klebsiella pneumoniae R030; assay: Bactericidal activity (MBC), strain 2; assay type: cell-based; conditions: 20 min, strain 2, 20 minutes of contact, read-out: Minimum bactericidal concentration (MBC)
Source text: as §1, §2, §3
2--Encapsulated klebsiella pneumoniae R030;
as §4, §5, §6, §7

[10] = system: Pseudomonas aeruginosa CNCM A22; assay: Bactericidal activity (MBC), strain 3; assay type: cell-based; conditions: CNCMA22, 20 min, strain 3, 20 minutes of contact, read-out: Minimum bactericidal concentration (MBC)
Source text: as §1, §2, §3
3--Pseudomonas aeruginosa CNCM A22;
as §4, §5, §6, §7

[11] = system: Candida parakruzei 3918; assay: Antifungal activity (MFC), strain 3; assay type: cell-based; conditions: 20 min; yeast strain 3; read-out: Minimum fongicidal concentration (MFC)
Source text: as §2, §7
(§9) The antifungal activity of the products according to the invention was also determined with the aforedescribed method.
(§10) The fungal strains selected for the analysis are:
3--Candida parakruzei 3918;
(§11) These strains are supported on a Sabouraud Dextrose agar medium commercialized by Difco; the technique used is the same as that used in the analysis of the antibacterial activity. After 48 hours of culture at 37° C., the microbial growth is collected with glass beads and 5 ml of diluent containing 1 g of tryptone and 8.5 g of sodium chloride in 1000 ml of distilled water; 5 ml of the diluent are then added. […] A 1/100th dilution of this suspension, observed between slides under a microscope 40-lens, should show 10 cells per frame, this corresponding to 1,000,000 yeasts per ml.

[12] = system: Candida tropicalis 3834; assay: Antifungal activity (MFC), strain 2; assay type: cell-based; conditions: 20 min; yeast strain 2; read-out: Minimum fongicidal concentration (MFC)
Source text: as §2, §7, §9, §10
2--Candida tropicalis 3834;
as §11

[13] = system: Candida albicans CNCM 1180; assay: Antifungal activity (MFC), strain 1; assay type: cell-based; conditions: 20 min; yeast strain 1; read-out: Minimum fongicidal concentration (MFC)
Source text: as §2, §7, §9, §10
1--Candida albicans CNCM 1180;
as §11

[14] = system: Torulopsis glabrata 072023; assay: Antifungal activity (MFC), strain 4; assay type: cell-based; conditions: 20 min; yeast strain 4; read-out: Minimum fongicidal concentration (MFC)
Source text: as §2, §7, §9, §10, §11

Row | SMILES | effect on the cellular division of the lymphoma cells [1] | products found to have a phototoxic or photoallergic effect [2] | MBC [3] [µg/mL] | MBC [4] [µg/mL] | MBC [5] [µg/mL] | products found to have a bad tolerance [6] | products found to have a sensibilizing effect [7] | LD50 at 336 h [8] [mg/kg] | MBC [9] [µg/mL] | MBC [10] [µg/mL] | MFC [11] [µg/mL] | MFC [12] [µg/mL] | MFC [13] [µg/mL] | MFC [14] [µg/mL]
1 | OCCc1ccc2ccccc2c1 [2-naphtyl ethanol] | inhibits the cellular division of the lymphoma cells of mice | – | – | – | – | – | – | – | – | – | – | – | – | –
2 | CN(C)CCC(CO)c1cccc2ccccc12 (centres unmarked) [SR 42 643 A] | – | None | 1000 (≈ 4110 µM) | 5000 (≈ 20500 µM) | 2000 (≈ 8220 µM) | None | None | 400 | 5000 (≈ 20500 µM) | 1000 (≈ 4110 µM) | – | – | – | –
3 | OCC(CCN1CCCCC1)c1cccc2ccccc12 (centres unmarked) [SR 43 077 A] | – | None | 600 (≈ 2120 µM) | 600 (≈ 2120 µM) | 600 (≈ 2120 µM) | None | None | 300 to 400 | 600 (≈ 2120 µM) | 800 (≈ 2820 µM) | 1000 (≈ 3530 µM) | 1000 (≈ 3530 µM) | 1000 (≈ 3530 µM) | 5000 (≈ 17600 µM)
4 | Cl.OCC(CCCCCCN1CCCCC1)c1cccc2ccccc12 (centres unmarked) [SR 43 157 A, 8-piperidino-2-(1-naphthyl)-octanol hydrochloride] | – | None | 200 | 200 | 200 | None | None | – | 200 | 100 | 300 | 300 | 300 | 1000
5 | OCC(CCN1CCCCCC1)c1ccc2ccccc2c1 (centres unmarked) [SR 43 270 A] | – | None | 1000 (≈ 3360 µM) | 1000 (≈ 3360 µM) | 2000 (≈ 6720 µM) | None | None | – | 1000 (≈ 3360 µM) | 1000 (≈ 3360 µM) | 1000 (≈ 3360 µM) | 1000 (≈ 3360 µM) | 500 (≈ 1680 µM) | 5000 (≈ 16800 µM)
6 | CC(C)N(CCC(CO)c1cccc2ccccc12)Cc1ccccc1 (centres unmarked) [SR 43 292 A] | – | None | 300 (≈ 863 µM) | 300 (≈ 863 µM) | 300 (≈ 863 µM) | None | None | 500 to 750 | 300 (≈ 863 µM) | 300 (≈ 863 µM) | 1000 (≈ 2880 µM) | 1000 (≈ 2880 µM) | 1000 (≈ 2880 µM) | 2000 (≈ 5760 µM)
7 | CC1CCN(CCCCCCC(CO)c2cccc3ccccc23)CC1 (centres unmarked) [SR 43 293 A] | – | None | 200 (≈ 566 µM) | 200 (≈ 566 µM) | 200 (≈ 566 µM) | None | None | ≤ 250 | 200 (≈ 566 µM) | 200 (≈ 566 µM) | 500 (≈ 1410 µM) | 200 (≈ 566 µM) | 500 (≈ 1410 µM) | 1000 (≈ 2830 µM)
8 | OCC(CCN1CCC(Cc2ccccc2)CC1)c1cccc2ccccc12 (centres unmarked) [SR 43 383 A] | – | None | 100 (≈ 268 µM) | 100 (≈ 268 µM) | 100 (≈ 268 µM) | None | None | 1180 | 100 (≈ 268 µM) | 100 (≈ 268 µM) | 100 (≈ 268 µM) | 100 (≈ 268 µM) | 100 (≈ 268 µM) | 500 (≈ 1340 µM)
9 | CN(C)CCCCCCC(CO)c1cccc2ccccc12 (centres unmarked) [SR 43 727 A] | – | None | 200 (≈ 668 µM) | 20 (≈ 66.8 µM) | 20 (≈ 66.8 µM) | None | None | 580 | 50 (≈ 167 µM) | 50 (≈ 167 µM) | – | – | – | –

From US4820717A, “Antimicrobial aromatic derivatives substituted by an (omega amino) alkanol group and compositions containing them” (priority 1985, dated 1989)
